Reference: PMC8792282 (Redox Biology, 2022)
Where two headings read alike, the source gives them in different places.

How the values were obtained:
[1] = molecular target: T1, Protein disulfide isomerase (PDI) (Homo sapiens, UniProt P07237); assay: insulin reduction assay; assay type: biochemical
[2] = molecular target: T1, Protein disulfide isomerase (PDI); assay: insulin reduction assay; assay type: biochemical; remark: listed apart in the source

T1 sequence (P07237 18-508): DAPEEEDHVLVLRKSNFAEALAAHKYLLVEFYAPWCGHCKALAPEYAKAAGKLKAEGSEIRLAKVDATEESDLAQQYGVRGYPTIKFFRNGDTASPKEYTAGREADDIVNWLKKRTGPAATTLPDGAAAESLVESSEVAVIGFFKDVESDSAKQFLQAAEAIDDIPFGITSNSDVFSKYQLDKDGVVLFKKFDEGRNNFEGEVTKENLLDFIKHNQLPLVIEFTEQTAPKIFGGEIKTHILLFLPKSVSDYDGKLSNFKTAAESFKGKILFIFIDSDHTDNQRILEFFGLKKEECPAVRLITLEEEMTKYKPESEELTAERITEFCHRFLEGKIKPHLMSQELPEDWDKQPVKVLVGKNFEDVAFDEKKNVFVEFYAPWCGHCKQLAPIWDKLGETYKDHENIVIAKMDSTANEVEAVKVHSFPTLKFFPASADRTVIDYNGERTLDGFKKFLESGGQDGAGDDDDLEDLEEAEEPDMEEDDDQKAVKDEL

Row | Molecule | IC50 [1] | IC50 [2]
1 | bepristat 2a | 0.7 µM | –
2 | C[C@@H]1O[C@@H](OC[C@H]2O[C@@H](Oc3c(-c4ccc(O)c(O)c4)oc4cc(O)cc(O)c4c3=O)[C@H](O)[C@@H](O)[C@@H]2O)[C@H](O)[C@H](O)[C@H]1O [rutin] | – | 4.5 µM
